According to article PMC5421785, “Citrullination only infrequently impacts peptide binding to HLA class II MHC” (PLoS ONE, 2017):
Where two headings read alike, the source gives them in different places. Square brackets hold non-standard residues; d marks the D form. Ends that are not written are not given here. Peptide text beside a SMILES is read from it. Cit = NC(=O)NCCC[C@H](N)C(=O)O

Columns and labels:
Test in all cases: HLA class II peptide binding, inhibition of radiolabeled peptide binding to purified MHC
DPB1*04:01 = molecular target: T1, DPB1*04:01 (Homo sapiens, UniProt P04440+P20036)
T1 construct: EBV transformed homozygous cell lines were used as sources of MHC molecules; endogenous in cells; host or cells: EBV transformed homozygous cell lines
T1 sequence (P04440 30-258): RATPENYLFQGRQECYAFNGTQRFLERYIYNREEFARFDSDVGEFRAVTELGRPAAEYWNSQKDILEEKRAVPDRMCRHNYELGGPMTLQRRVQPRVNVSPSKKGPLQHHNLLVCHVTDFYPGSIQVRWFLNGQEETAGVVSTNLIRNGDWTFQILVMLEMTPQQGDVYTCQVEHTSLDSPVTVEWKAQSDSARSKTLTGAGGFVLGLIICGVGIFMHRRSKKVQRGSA
T1 sequence (P20036 29-260 partner): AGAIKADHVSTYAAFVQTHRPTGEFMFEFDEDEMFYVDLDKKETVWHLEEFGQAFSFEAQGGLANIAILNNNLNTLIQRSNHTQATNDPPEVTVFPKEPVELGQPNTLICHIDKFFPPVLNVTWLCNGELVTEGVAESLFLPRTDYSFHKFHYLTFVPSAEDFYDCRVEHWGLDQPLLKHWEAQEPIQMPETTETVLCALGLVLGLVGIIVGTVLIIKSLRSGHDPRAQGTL

HLA-DRB1*01:01 = molecular target: T2, HLA-DRB1*01:01 (Homo sapiens, UniProt P01903+P01911, A100R/D57E/F55L/F60I/F76Y/I96L/L162R/M171V/P40L/Q125E/R42F/V115G/Y59C); conditions: for DRB1*01:01 binding capacity, WT/cit ratio: ratio of WT IC50 to Cit IC50
T2 construct: EBV transformed homozygous cell lines were used as sources of MHC molecules; endogenous in cells; host or cells: EBV transformed homozygous cell lines

HLA-DRB1*04:01 = molecular target: T3, HLA-DRB1*04:01 (Homo sapiens, UniProt P01903+P01911, A100K/A169T/F76Y/I96L/K127E/L162R/M171V/N62H/P40V/Q125Y/R42H/S133A/S149N/S66Y/V115G/V209L/W38E); conditions: for DRB1*04:01 binding capacity, WT/cit ratio: ratio of WT IC50 to Cit IC50
T3 construct: EBV transformed homozygous cell lines were used as sources of MHC molecules; endogenous in cells; host or cells: EBV transformed homozygous cell lines

[1] = citrullinated 15-mer peptide (X = citrulline), purified HLA-DRB1*01:01, read-out: DRB1*01:01 binding capacity, Cit peptide (IC50 nM)
[2] = citrullinated 15-mer peptide (X = citrulline), purified HLA-DRB1*04:01, read-out: DRB1*04:01 binding capacity, Cit peptide (IC50 nM)
[3] = citrullinated peptide as listed (X at Cit position), read-out: DRB1*01:01 binding capacity Cit peptide (IC50 nM)
[4] = citrullinated peptide as listed (X at Cit position), read-out: DRB1*04:01 binding capacity Cit peptide (IC50 nM)
[5] = citrullinated 15-mer (X), purified MHC, inhibition of radiolabeled peptide binding, dash = IC50 >40,000 nM, read-out: DRB1*01:01 binding capacity, Cit peptide (IC50 nM)
[6] = citrullinated 15-mer (X), purified MHC, inhibition of radiolabeled peptide binding, dash = IC50 >40,000 nM, read-out: DRB1*04:01 binding capacity, Cit peptide (IC50 nM)
[7] = >1 = citrullination increases binding
[8] = wild-type (unmodified Arg) 15-mer peptide, purified HLA-DRB1*01:01, read-out: DRB1*01:01 binding capacity, WT peptide (IC50 nM)
[9] = wild-type (unmodified Arg) 15-mer peptide, purified HLA-DRB1*04:01, read-out: DRB1*04:01 binding capacity, WT peptide (IC50 nM)

Question: With `CC(C)C[C@H](NC(=O)[C@H](CCCCN)NC(=O)[C@H](CC(C)C)NC(=O)[C@@H](NC(=O)[C@H](CC(N)=O)NC(=O)[C@H](CCC(N)=O)NC(=O)[C@H](CCCCN)NC(=O)[C@@H](NC(=O)[C@H](Cc1ccc(O)cc1)NC(=O)[C@H](CCCCN)NC(=O)[C@@H]1CCCN1)C(C)C)[C@@H](C)O)C(=O)N[C@@H](C)C(=O)N[C@H](C(=O)O)[C@@H](C)O` [HA 307–319, reference compound] as the molecule, how does the IC50 (DPB1*04:01) read?
Answer: The IC50 was 39.1 µM.

Question: With `CC(C)C[C@H](NC(=O)[C@H](CC(N)=O)NC(=O)[C@@H](NC(=O)[C@H](CCC(=O)O)NC(=O)[C@H](CCCNC(N)=O)NC(=O)[C@H](CC(C)C)NC(=O)[C@H](CC(N)=O)NC(=O)[C@@H](N)CC(C)C)[C@@H](C)O)C(=O)N[C@@H](CC(=O)O)C(=O)N[C@@H](CO)C(=O)N[C@@H](CC(C)C)C(=O)N1CCC[C@H]1C(=O)N[C@@H](CC(C)C)C(=O)N[C@H](C(=O)N[C@@H](CC(=O)O)C(=O)O)C(C)C` [LNLXETNLDSLPLVD] as the molecule, how does the IC50 (HLA-DRB1*01:01; [1]) read?
Answer: The IC50 was 69 nM.

Question: What about the IC50 (HLA-DRB1*04:01; [2]) of the same molecule?
Answer: The IC50 was 4340 nM.

Question: How did the IC50 (HLA-DRB1*01:01; [3]) turn out when `CSCC[C@H](NC(=O)[C@H](Cc1ccc(O)cc1)NC(=O)[C@H](CCC(N)=O)NC(=O)[C@@H](N)CC(C)C)C(=O)N[C@@H](CCCNC(N)=O)C(=O)N[C@@H](C)C(=O)N[C@@H](CC(=O)O)C(=O)N[C@@H](CCC(N)=O)C(=O)N[C@@H](C)C(=O)N[C@@H](C)C(=O)NCC(=O)NCC(=O)N[C@@H](CC(C)C)C(=O)N[C@@H](CCCNC(=N)N)C(=O)N[C@@H](CCC(N)=O)C(=O)O` [LQYMXADQAAGGLRQ] (H-LQYM[Cit]ADQAAGGLRQ-OH) was run?
Answer: The IC50 was 16 nM.

Question: And the IC50 (HLA-DRB1*04:01; [4])?
Answer: Its IC50 is 69 nM.

Question: `CC(C)C[C@H](NC(=O)[C@H](C)NC(=O)[C@H](CC(=O)O)NC(=O)[C@H](CC(N)=O)NC(=O)[C@H](CC(N)=O)NC(=O)[C@H](CCCNC(=N)N)NC(=O)[C@H](CC(N)=O)NC(=O)[C@H](C)NC(=O)[C@H](C)N)C(=O)N[C@@H](CCCNC(N)=O)C(=O)N[C@@H](CCC(N)=O)C(=O)N[C@@H](C)C(=O)N[C@@H](CCCCN)C(=O)N[C@@H](CCC(N)=O)C(=O)N[C@@H](CCC(=O)O)C(=O)O` [AANRNNDALXQAKQE] (H-AANRNNDAL[Cit]QAKQE-OH; N-terminus and C-terminus assumed) was tested. Which IC50 (HLA-DRB1*01:01; [5]) did it give?
Answer: The IC50 was greater than 40000 nM.

Question: And the “DRB1*01:01 binding capacity, WT/cit ratio” value (HLA-DRB1*01:01)?
Answer: Its value is 1.0.

Question: What about the IC50 (HLA-DRB1*04:01; [6]) of the same molecule?
Answer: The IC50 was greater than 40000 nM.

Question: What about the “DRB1*04:01 binding capacity, WT/cit ratio” value (HLA-DRB1*04:01) of the same molecule?
Answer: The value was 1.0.

Question: For TNEKVELQELNDRFA [Vimentin 101 WT], which IC50 (HLA-DRB1*01:01; read-out: DRB1*01:01 binding capacity, WT peptide (IC50 nM)) is on record?
Answer: The IC50 was 5150 nM.

Question: And the IC50 (HLA-DRB1*04:01; read-out: DRB1*04:01 binding capacity, WT peptide (IC50 nM))?
Answer: The IC50 was 17900 nM.

Question: How did the IC50 (HLA-DRB1*01:01; [5]) turn out when `CC[C@H](C)[C@H](NC(=O)[C@H](CC(=O)O)NC(=O)[C@H](CCC(=O)O)NC(=O)[C@H](C)NC(=O)[C@H](CC(C)C)NC(=O)[C@H](CC(N)=O)NC(=O)[C@H](CC(=O)O)NC(=O)[C@H](CCCNC(N)=O)NC(=O)[C@H](CCC(=O)O)NC(=O)[C@@H](NC(=O)[C@H](CCC(=O)O)NC(=O)[C@@H](N)C(C)C)C(C)C)C(=O)N[C@@H](CCSC)C(=O)N[C@@H](CCCNC(=N)N)C(=O)N[C@@H](CC(C)C)C(=O)O` [VEVEXDNLAEDIMRL] (H-VEVE[Cit]DNLAEDIMRL-OH) was run?
Answer: The IC50 was 27100 nM.

Question: And the IC50 (HLA-DRB1*04:01; [6])?
Answer: The IC50 was 16300 nM.

Question: What does the source list for `CC(C)C[C@H](NC(=O)[C@H](CC(C)C)NC(=O)[C@H](CCCNC(N)=O)NC(=O)[C@@H](NC(=O)CNC(=O)[C@@H]1CCCN1C(=O)[C@@H](NC(=O)[C@H](CO)NC(=O)[C@H](CO)NC(=O)[C@@H](N)CCCNC(=N)N)C(C)C)C(C)C)C(=O)N[C@@H](CCC(N)=O)C(=O)N[C@@H](CC(=O)O)C(=O)N[C@@H](CO)C(=O)N[C@H](C(=O)N[C@@H](CC(=O)O)C(=O)O)C(C)C` [RSSVPGVXLLQDSVD] (H-RSSVPGV[Cit]LLQDSVD-OH)?
Answer: IC50 (HLA-DRB1*01:01; [5]): 1310 nM; IC50 (HLA-DRB1*04:01; [6]): 8950 nM

Question: `C[C@H](NC(=O)CNC(=O)[C@H](CCCCN)NC(=O)[C@@H]1CCCN1C(=O)CNC(=O)[C@@H](N)CC(=O)O)C(=O)N[C@@H](CCCNC(N)=O)C(=O)NCC(=O)N[C@@H](CC(=O)O)C(=O)N[C@@H](CO)C(=O)NCC(=O)N1CCC[C@H]1C(=O)N1CCC[C@H]1C(=O)NCC(=O)N[C@@H](CCCNC(=N)N)C(=O)O` [DGPKGAXGDSGPPGR] (H-DGPKGA[Cit]GDSGPPGR-OH; N-terminus and C-terminus assumed) was tested. Which IC50 (HLA-DRB1*01:01; [1]) did it give?
Answer: The IC50 was greater than 40000 nM.

Question: What about the “DRB1*01:01 binding capacity, WT/cit ratio” value (HLA-DRB1*01:01; [7]) of the same molecule?
Answer: Its value is 0.533.

Question: What about the IC50 (HLA-DRB1*04:01; [2]) of the same molecule?
Answer: The IC50 was greater than 40000 nM.

Question: What about the “DRB1*04:01 binding capacity, WT/cit ratio” value (HLA-DRB1*04:01; [7]) of the same molecule?
Answer: Its value is 0.548.

Question: `CSCC[C@H](NC(=O)[C@@H](NC(=O)CNC(=O)[C@@H]1CCCN1C(=O)[C@H](CCC(N)=O)NC(=O)CNC(=O)[C@@H](N)CCCNC(N)=O)C(C)C)C(=O)NCC(=O)N[C@@H](Cc1ccccc1)C(=O)N1CCC[C@H]1C(=O)NCC(=O)N1CCC[C@H]1C(=O)N[C@@H](CCCCN)C(=O)NCC(=O)N[C@@H](C)C(=O)O` [XGQPGVMGFPGPKGA] (H-[Cit]GQPGVMGFPGPKGA-OH) was tested. Which IC50 (HLA-DRB1*01:01; [1]) did it give?
Answer: Its IC50 is 493 nM.

Question: What about the IC50 (HLA-DRB1*04:01; [2]) of the same molecule?
Answer: The IC50 was greater than 40000 nM.

Question: For `CC[C@H](C)[C@H](NC(=O)[C@H](CC(=O)O)NC(=O)[C@@H](NC(=O)[C@@H](NC(=O)[C@@H]1CCCN1C(=O)[C@H](CC(C)C)NC(=O)[C@H](CCCNC(=N)N)NC(=O)[C@H](CO)NC(=O)[C@@H](NC(=O)[C@H](CCCCN)NC(=O)[C@H](CCC(N)=O)NC(=O)[C@H](CO)NC(=O)[C@H](CCCNC(N)=O)NC(=O)[C@H](Cc1ccc(O)cc1)NC(=O)[C@@H](N)CCC(=O)O)[C@@H](C)O)[C@@H](C)CC)[C@@H](C)CC)C(=O)O` [EYXSQKTSRLPIIDI] (H-EY[Cit]SQKTSRLPIIDI-OH), which IC50 (HLA-DRB1*01:01; [3]) is on record?
Answer: The IC50 was 5.9 nM.

Question: What about the IC50 (HLA-DRB1*01:01; value of the wild-type (non-citrullinated) counterpart of the listed peptide, read-out: DRB1*01:01 binding capacity WT peptide (IC50 nM)) of the same molecule?
Answer: Its IC50 is 14 nM.

Question: And the IC50 (HLA-DRB1*04:01; [4])?
Answer: Its IC50 is 473 nM.

Question: What about the IC50 (HLA-DRB1*04:01; value of the wild-type (non-citrullinated) counterpart of the listed peptide, read-out: DRB1*04:01 binding capacity WT peptide (IC50 nM)) of the same molecule?
Answer: The IC50 was 314 nM.

Question: Which IC50 (HLA-DRB1*01:01; [8]) does the source give for AAGVKGDRGETGAVG [Collagen 1051 WT] here?
Answer: The IC50 was 1150 nM.

Question: And the IC50 (HLA-DRB1*04:01; [9])?
Answer: Its IC50 is 25200 nM.

Question: QDGQRYNDKDVWKPE [Collagen 36 WT] was tested. Which IC50 (HLA-DRB1*01:01; [8]) did it give?
Answer: The IC50 was greater than 40000 nM.

Question: What about the IC50 (HLA-DRB1*04:01; [9]) of the same molecule?
Answer: Its IC50 is greater than 40000 nM.

Question: RGQPGVMGFPGPKGA [Collagen 596 WT] was tested. Which IC50 (HLA-DRB1*01:01; [8]) did it give?
Answer: Its IC50 is 422 nM.

Question: What about the IC50 (HLA-DRB1*04:01; [9]) of the same molecule?
Answer: The IC50 was greater than 40000 nM.
